# Reference: publication PMC10377353, “Targeted Destruction of S100A4 Inhibits Metastasis of Triple Negative Breast Cancer Cells” (Biomolecules, 2023)
# Target: T1, S100A4 (Homo sapiens, UniProt P26447)
# T1 construct: recombinant human (rh)S100A4, pET-15b, E. coli BL21 (DE3); with nonmuscle myosin IIA C-terminal fragment (rC-NMIIA, 149 terminal amino acids)
# Experiment: resonant mirror biosensor (SPR-type), inhibition of rhS100A4 binding to immobilised rC-NMIIA
# T1 sequence (P26447 2-101): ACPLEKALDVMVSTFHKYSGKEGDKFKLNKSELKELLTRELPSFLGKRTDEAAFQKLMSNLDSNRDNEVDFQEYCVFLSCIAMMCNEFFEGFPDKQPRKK
# T1 sequence (P35579 2-1960 partner): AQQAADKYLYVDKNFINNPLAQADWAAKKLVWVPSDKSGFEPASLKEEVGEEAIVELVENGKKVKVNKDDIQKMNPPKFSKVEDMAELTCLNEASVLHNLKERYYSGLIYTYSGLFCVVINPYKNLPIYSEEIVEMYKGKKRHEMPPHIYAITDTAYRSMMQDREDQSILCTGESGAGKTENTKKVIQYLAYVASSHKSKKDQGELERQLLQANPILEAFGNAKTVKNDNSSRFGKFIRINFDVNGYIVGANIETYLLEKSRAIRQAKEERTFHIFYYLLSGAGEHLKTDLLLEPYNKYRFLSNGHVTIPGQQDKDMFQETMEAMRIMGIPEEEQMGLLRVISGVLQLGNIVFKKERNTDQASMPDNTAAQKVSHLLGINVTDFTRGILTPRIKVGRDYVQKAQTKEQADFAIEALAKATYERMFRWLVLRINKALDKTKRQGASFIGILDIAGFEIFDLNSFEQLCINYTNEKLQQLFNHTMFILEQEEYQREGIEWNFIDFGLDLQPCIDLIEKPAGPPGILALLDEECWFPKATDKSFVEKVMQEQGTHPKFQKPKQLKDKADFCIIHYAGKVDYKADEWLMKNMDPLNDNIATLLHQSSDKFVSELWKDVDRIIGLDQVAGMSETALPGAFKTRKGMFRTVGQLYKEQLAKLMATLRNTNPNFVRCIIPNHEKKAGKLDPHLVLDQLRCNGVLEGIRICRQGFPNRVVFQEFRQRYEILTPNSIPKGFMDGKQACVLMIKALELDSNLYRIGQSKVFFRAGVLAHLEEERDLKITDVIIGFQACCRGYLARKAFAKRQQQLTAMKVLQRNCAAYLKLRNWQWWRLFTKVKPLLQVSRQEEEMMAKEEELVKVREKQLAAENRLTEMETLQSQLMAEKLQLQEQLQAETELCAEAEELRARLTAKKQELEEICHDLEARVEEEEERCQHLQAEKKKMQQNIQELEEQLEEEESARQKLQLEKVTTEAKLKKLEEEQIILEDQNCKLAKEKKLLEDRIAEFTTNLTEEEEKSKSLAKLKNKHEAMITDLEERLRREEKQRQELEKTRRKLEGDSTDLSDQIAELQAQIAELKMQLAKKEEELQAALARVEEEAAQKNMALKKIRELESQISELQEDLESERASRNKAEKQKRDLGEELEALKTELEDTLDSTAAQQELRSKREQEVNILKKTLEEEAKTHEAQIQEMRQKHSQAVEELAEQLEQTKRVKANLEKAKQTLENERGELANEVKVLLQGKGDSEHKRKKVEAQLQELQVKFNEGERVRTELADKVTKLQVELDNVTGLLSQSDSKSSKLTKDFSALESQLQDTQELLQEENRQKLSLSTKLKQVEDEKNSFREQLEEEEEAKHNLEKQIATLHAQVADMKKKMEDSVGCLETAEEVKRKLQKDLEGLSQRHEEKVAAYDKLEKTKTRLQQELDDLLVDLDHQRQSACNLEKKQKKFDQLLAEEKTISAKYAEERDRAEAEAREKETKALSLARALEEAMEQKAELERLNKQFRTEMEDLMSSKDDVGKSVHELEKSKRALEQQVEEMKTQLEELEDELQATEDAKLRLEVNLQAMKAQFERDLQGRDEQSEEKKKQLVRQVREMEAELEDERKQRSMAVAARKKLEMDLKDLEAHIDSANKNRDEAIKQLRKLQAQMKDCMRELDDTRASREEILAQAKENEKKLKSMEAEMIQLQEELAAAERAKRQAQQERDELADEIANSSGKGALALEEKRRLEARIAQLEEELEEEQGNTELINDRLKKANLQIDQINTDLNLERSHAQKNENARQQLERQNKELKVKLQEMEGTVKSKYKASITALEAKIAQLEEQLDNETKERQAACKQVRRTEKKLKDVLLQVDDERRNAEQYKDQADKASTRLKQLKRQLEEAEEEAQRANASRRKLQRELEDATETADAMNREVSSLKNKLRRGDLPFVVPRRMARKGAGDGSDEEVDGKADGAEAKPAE
smiles,measurement,value
COC1(OC)[C@@]2(Cl)C(Cl)=C(Cl)[C@]1(Cl)[C@@H]1C(=O)N(c3ccccc3C)C(=O)[C@@H]12 [CT070909],inhibition at 33 µM,> 90%
